Measurements taken from paper PMC8196580, “Identification of Kaurane-Type Diterpenes as Inhibitors of Leishmania Pteridine Reductase I” (Molecules, 2021).
Where two headings read alike, the source gives them in different places.

Key:
[1] = tested on: L. major; set-up: method as in ChEMBL; conditions: ref ChEMBL, cited from earlier work
[2] = tested on: L. major; experiment: ChEMBL dataset of pIC50 values against L. major used for the RF model (Table S1); assay type: cell-based, Leishmania major; note: call rule not given here
[3] = ChemBL structures with pIC50 values used for Random forest model construction, L. major
[4] = Active/Inactive class assigned to the ChEMBL pIC50 value for Random forest model construction, ref ChEMBL
[5] = ChemBL structures with pIC50 values used for Random forest model construction (Table S1)
[6] = Active/Inactive class assigned to ChemBL structures for Random forest model construction (Table S1)

## O=C(O)c1ccc(-c2c(-c3ccccc3)nc3ccccn23)cc1 [CHEMBL2151867]
[1]; [3]
  pIC50 Value: 4.00
[2]; [4]
  Outcome: Inactive

## O=[N+]([O-])c1ccc2nc(-c3cccs3)[nH]c2c1 [CHEMBL2297907]
[1]; [5]
  pIC50 Value: 5.48
[2]; [6]
  Outcome: Active

## O=C(CCCl)N1c2ccccc2Oc2ccccc21 [CHEMBL3759988]
[1]; [3]
  pIC50 Value: 4.41
[2]; [4]
  Outcome: Inactive

## CCCc1cc(-c2nn3c(-c4ccccc4)nnc3s2)n(CC)n1 [CHEMBL1256824]
[1]; [3]
  pIC50 Value: 4.00
[2]; [4]
  Outcome: Inactive

## C#CCOc1ccc(C(=O)/C=C/c2ccc(F)cc2)c(OCC#C)c1 [CHEMBL4162285]
[1]; [3]
  pIC50 Value: 5.00
[2]; [4]
  Outcome: Active

## Cc1ccc(-c2nc3ccc([N+](=O)[O-])cc3[nH]2)cc1 [CHEMBL1446966]
[1]; [5]
  pIC50 Value: 5.46
[2]; [6]
  Outcome: Active

## O=C(CCl)N1c2ccccc2Sc2ccc(Cl)cc21 [CHEMBL290253]
[1]; [3]
  pIC50 Value: 4.98
[2]; [4]
  Outcome: Inactive

## c1csc(-c2nc3ccccc3[nH]2)c1 [CHEMBL201221]
[1]; [5]
  pIC50 Value: 5.51
[2]; [6]
  Outcome: Active

## CCn1nc(C)cc1-c1nnc2sc(Cc3c(F)cccc3Cl)nn12 [CHEMBL1256857]
[1]; [3]
  pIC50 Value: 4.00
[2]; [4]
  Outcome: Inactive

## NP(=O)(OCc1ccc([N+](=O)[O-])cc1C(F)(F)F)N(CCCl)CCCl (stereo not drawn) [CHEMBL1257016]
[1]; [3]
  pIC50 Value: 5.23
[2]; [4]
  Outcome: Active

## O=C(/C=C/c1ccccc1Br)C1=Cc2cc(Cl)ccc2OC1 [CHEMBL1094316]
[1]; [5]
  pIC50 Value: 5.88
[2]; [6]
  Outcome: Active

## O=C(CCCl)N1c2ccccc2Oc2ccc(Cl)cc21 [CHEMBL3759105]
[1]; [3]
  pIC50 Value: 4.80
[2]; [4]
  Outcome: Inactive

## c1ccc(-c2nc3ccccn3c2-c2ccccc2)cc1 [CHEMBL1719415]
[1]; [3]
  pIC50 Value: 4.65
[2]; [4]
  Outcome: Inactive

## COc1ccc(-c2ccc3ccccc3c2)c2c1C(C)=N[C@H](C)C2 [CHEMBL1276917]
[1]; [3]
  pIC50 Value: 4.55
[2]; [4]
  Outcome: Inactive

## COc1ccc2c(c1)C=C(/C=C/C(=O)c1ccc(Cl)c(Cl)c1)CO2 [CHEMBL3329270]
[1]; [5]
  pIC50 Value: 6.00
[2]; [6]
  Outcome: Active

## O=C(/C=C/c1ccc(-n2ccnc2)cc1)c1cccc(F)c1F [CHEMBL570959]
[1]; [5]
  pIC50 Value: 5.57
[2]; [6]
  Outcome: Active

## Clc1ccc(-c2nc3ccccc3[nH]2)cc1 [CHEMBL473163]
[1]; [5]
  pIC50 Value: 5.50
[2]; [6]
  Outcome: Active

## Cc1ccc2cc(/C=C/C(=O)c3sccc3Br)c(Cl)nc2c1 [CHEMBL1940858]
[1]; [5]
  pIC50 Value: 5.74
[2]; [6]
  Outcome: Active

## O=C(CCl)N1c2ccccc2CCc2ccccc21 [CHEMBL1314125]
[1]; [3]
  pIC50 Value: 4.36
[2]; [4]
  Outcome: Inactive

## COc1ccccc1C(=O)N/N=C/c1cccc(O)c1 [CHEMBL2382036]
[1]; [3]
  pIC50 Value: 4.48
[2]; [4]
  Outcome: Inactive

## CC1=C(C(=O)/C=C/c2ccc(O)cc2)C(c2ccccc2)NC(=O)N1C (stereo not drawn) [CHEMBL3787563]
[1]; [5]
  pIC50 Value: 5.77
[2]; [6]
  Outcome: Active

## Cn1c([N+](=O)[O-])cnc1-c1nnc(N2CCN(C(=O)c3ccc(Cl)cc3)CC2)s1 [CHEMBL520958]
[1]; [3]
  pIC50 Value: 4.37
[2]; [4]
  Outcome: Inactive

## COc1ccccc1-c1nnc(-c2ccc(C(=O)N/N=C/c3cccc(O)c3O)cc2)o1 [CHEMBL4065149]
[1]; [5]
  pIC50 Value: 5.85
[2]; [6]
  Outcome: Active

## CC1(O)CCCC2(C)Cc3c(O)ccc(O)c3CC12 (stereo not drawn) [CHEMBL255315]
[1]; [3]
  pIC50 Value: 4.99
[2]; [4]
  Outcome: Inactive

## O=[N+]([O-])c1ccc(-c2c(-c3ccccc3)nc3ccccn23)cc1 [CHEMBL2151862]
[1]; [5]
  pIC50 Value: 5.31
[2]; [6]
  Outcome: Active

## O=C(/C=C/c1ccc(-n2ccnc2)cc1)c1ccc(Cl)c(Cl)c1Cl [CHEMBL571575]
[1]; [5]
  pIC50 Value: 5.78
[2]; [6]
  Outcome: Active

## Cc1cccc2cc(C3CC(c4ccc(I)s4)=NN3)c(Cl)nc12 (stereo not drawn) [CHEMBL2236134]
[1]; [5]
  pIC50 Value: 5.77
[2]; [6]
  Outcome: Active

## Cl.O=[N+]([O-])c1ccc(-c2nnc(N3CCN(c4ccc(C5=NCCN5)cc4)CC3)s2)o1 [CHEMBL1783210]
[1]; [3]
  pIC50 Value: 3.70
[2]; [4]
  Outcome: Inactive

## O=C(/C=C/c1ccc(-n2ccnc2)cc1)c1ccccc1F [CHEMBL571071]
[1]; [5]
  pIC50 Value: 5.47
[2]; [6]
  Outcome: Active

## COc1cc(OC)c2c(C)[n+](-c3c(C)cccc3C)c(C)cc2c1.F[B-](F)(F)F [CHEMBL521247]
[1]; [5]
  pIC50 Value: 5.46
[2]; [6]
  Outcome: Active

## Fc1ccccc1-c1nc2ccccn2c1-c1ccccc1 [CHEMBL2151876]
[1]; [3]
  pIC50 Value: 4.41
[2]; [4]
  Outcome: Inactive

## Cn1cc(/C=N/Cc2ccccc2)c2ccccc21 [CHEMBL2071559]
[1]; [5]
  pIC50 Value: 5.54
[2]; [6]
  Outcome: Active

## O=[N+]([O-])c1ccc(-c2nnc(NCc3cn(Cc4ccc(Cl)cc4Cl)nn3)s2)o1 [CHEMBL1951534]
[1]; [3]
  pIC50 Value: 4.70
[2]; [4]
  Outcome: Inactive
